Reference: patent publication US11453689B2, “3-pyrrolidine-indole derivatives as serotonergic psychedelic agents for the treatment of CNS disorders” (Mindset Pharma Inc., priority 2020, dated 2022)
Read-outs that look alike come from different tables or passages of the source.

Key:
[1] = target: human 5-HT2A (h5-HT2A) receptor (Homo sapiens (Human), UniProt P28223); assay: FLIPR calcium assay, human 5-HT2A receptor, agonist mode; type: cell-based
Experimental: I. Assessment of the Activated Effect of Exemplary Compounds of Formula I Targeting on Human 5-HT2A (h5-HT2A) Receptor Under Agonist Mode:
1. Culture the cells in cell culture medium (DMEM containing 10% FBS, 1× penicillin-streptomycin 300 μg/ml G418 and 100 μg/ml hygromycin B) at 37° C., 5% (v/v) CO2.
2. One day before the assays, detach the cell using TrypLE™ Express and count cells using cell counter.
3. Seed 20000 cells/well in 30 μl/well culture medium to a 384-well cell plate and incubate the cells overnight at 37° C., 5% (v/v) CO2.
4. On the assay day, prepare 2×dye solution following the manual of the FLIPR® Calcium 6 Assay Kit: i. Dilute the dye with assay buffer(20 mM HEPES in 1× HBSS, PH7.4); ii. Add probenecid to the final concentration of 5 mM; iii. Vortex vigorously for 1-2 minutes.
5. Medium from cell plate by flicking the cell plate on towel papers.
6. Add 10 μl of assay buffer and 10 μl of 2×dye solution to each well of the cell plate.
7. Put the cell plate on plate shaker, agitate the plate at 600 rpm for 2 minutes. Incubate the plate at 37° C. for 2 hours followed by additional 15-minute incubation at 25° C.
8. Prepare 3×compound in assay buffer: a. Dilute reference compounds to required concentration with DMSO. Add the compounds to a 384-well compound plate; b. Perform serial dilutions; c. Add 10 mM test compounds to the compound plate, perform 3-fold serial dilutions. d. […] Add 20 μl/well assay buffer to the compound plate; f. Mix the plate on plate shaker for 2 mins;
i. The normalized fluorescence reading (RFU) is calculated as shown follow, while Fmax and Fmin stand for maximum and minimum of calcium signal during defined time window: RFU=Fmax−Fmin
ii. Calculate the percentage activation by using following equation: […]
iii. Calculate EC50 by fitting % activation against log of compound concentrations with Hill equation using XLfit.

[2] = target: human 5-HT2A receptor (Homo sapiens (Human), UniProt P28223); assay: Radioligand ([3H]-ketanserin) binding assay on human 5-HT2A receptor
Experimental: i. Prepare the assay buffer following the table below;
ii. Preparation of 8 doses of reference and exemplary test compounds starting from 10 mM stock solution as requested by 5-fold serial dilutions with 100%;
iii. […] a. Add 50 μl/well of 0.5% (v/v) PEI to UniFilter-96 GF/B plates. Seal the plates and incubate at 4° C. for 3 hrs; b. After incubation, wash the plates 3 times with ice-cold wash buffer (50 mM Tris, pH7.4);
iv. Preparation of assay plates: a. Dilute cell membrane with assay buffer and add 330 μl/well to 96 round deep well plates to reach a concentration of 20 μg/well; b. Prepare 8 concentrations of reference or exemplary test compounds and add 110 μl/well to 96 round deep well plates; c. Dilute [3H]-ketanserin with assay buffer to 5 nM (5× final concentration) and add 110 μl/well to 96 round deep well plates.
v. Centrifuge the plate at 1000 rpm for 30 secs and then agitate at 600 rpm, R.T. for 5 min.
vi. Seal the plates and incubate the plate at 27° C. for 90 min.
vii. Stop the incubation by vacuum filtration onto GF/B filter plates followed by 4 times washing with ice-cold wash buffer (50 mM Tris, pH7.4).
ix. Seal the filter plates and add 40 μl/well of scintillation cocktail.
x. Read the plate by using a Microbeta2 microplate counter.
For reference and exemplary test compounds, the results are expressed as % Inhibition, using the normalization equation: N=100−100×(U−C2)/(C1−C2), where U is the unknown value, C1 is the average of high controls, and C2 is the average of low controls. The IC50 is determined by fitting percentage of inhibition as a function of compound concentrations with Hill equation using XLfit.

[3] = Human liver microsomes stability with NADPH
Experimental: (§1) The objective of this study was to estimate in vitro metabolic stability of exemplary compounds in pooled human, male rat and male mouse liver microsomes. The concentrations of exemplary compounds in reaction systems were evaluated by LC-MS/MS for estimating the stability in pooled human, male rat and male mouse liver microsomes. The in vitro intrinsic clearances of test compounds were determined as well.
(§2) A master solution in the “Incubation Plate” containing phosphate buffer, ultra-pure H2O, MgCl2 solution and liver microsomes was made according to Table 3. The mixture was pre-warmed at 37° C. water bath for 5 minutes.
(§3) 40 μL of 10 mM NADPH solution was added to each well. The final concentration of NADPH was 1 mM. The negative control samples were prepared by replacing NADPH with 40 μL of ultra-pure H2O. Samples were prepared in duplicate. Negative controls were prepared in singlet.
(§4) The reaction was started with the addition of 4 μL of 200 μM exemplary test compounds or control compounds to each master solution to get the final concentration of 2 μM. This study was performed in duplicate.
(§5) Aliquots of 50 μL were taken from the reaction solution at 0, 15, 30, 45 and 60 minutes. The reaction solutions were stopped by the addition of 4 volumes of cold methanol with IS (100 nM alprazolam, 200 nM imipramine, 200 nM labetalol and 2 μM ketoprofen). Samples were centrifuged at 3,220 g for 40 minutes. Aliquot of 90 μL of the supernatant was mixed with 90 μL of ultra-pure H2O and then was used for LC-MS/MS analysis.
(§6) LC/MS analysis was performed for all samples from this study using a Shimadzu liquid chromatograph separation system equipped with degasser DGU-20A5R; solvent delivery unit LC-30AD; system controller SIL-30AC; column oven CTO-30A; CTC Analytics HTC PAL System. Mass spectrometric analysis was performed using an Triple Quad™ 5500 instrument.
(§7) All calculations were carried out using Microsoft Excel. Peak areas were determined from extracted ion chromatograms. The slope value, k, was determined by linear regression of the natural logarithm of the remaining percentage of the parent drug vs. incubation time curve.
(§8) Conversion of the in vitro t1/2 (min) into the in vitro intrinsic clearance (in vitro CLint, in μL/min/mg proteins) was done using the following equation (mean of duplicate determinations): […]

[4] = Rat liver microsomes stability with NADPH
Experimental: as §1, §2, §3, §4, §5, §6, §7, §8

[5] = Mouse liver microsomes stability with NADPH
Experimental: as §1, §2, §3, §4, §5, §6, §7, §8

[6] = tested on: head-twitch response (HTR) in male C57BL6 mice; assay: Mouse head-twitch response (HTR); type: in vivo; conditions: M100907 0.5 mg/kg IP before I-2 10 mg/kg SC
Experimental: Male, C57BL/6J mice (body weight range 20-30 g) were dosed with the appropriate dose of test article, and following a 1-minute pre-treatment time, placed in individual observation chambers. Animals were visually assessed for the incidence head twitches continuously over a 1 hr period. Head twitches were defined as a rapid jerk of the head which was not elicited by an external tactile stimulus (Come and Pickering, Psychopharmacologia, 1967, 11(1): 65-78). Each head twitch was individually counted by a trained observer, and the data expressed as the mean±SEM of 6-10 mice per group. Mice were used in a single experiment only.
The effect of various doses of exemplary compound of Formula I, I-2, on head-twitch response (HTR) in male C57BL6 mice were measured. The mice were treated with compound I-2 (0.03-10 mg/kg, SC) by SC route (N=6 mice/dose), and the total number of head twitches were recorded over a 1h period. Data is expressed as mean±SEM. The induction of head twitches elicited by 5-HT2A receptor agonists is believed to represent a behavioural proxy of their psychedelic effects.
To evaluate the involvement of 5-HT2A receptor on the HTR induced by exemplary compounds of Formula I, mice were pretreated with the selective 5-HT2AR antagonist M100907 (also known as volinanserin) prior to the administration of exemplary compounds of Formula I, for example, 1-2 (10 mg/kg SC).

[7] = tobacco use disorder, cited from earlier work

Question: For `[2H]C([2H])(c1c[nH]c2cccc(F)c12)[C@H]1CCCN1C([2H])([2H])[2H]` [Compound I-37, (R)-4-fluoro-3-((1-(methyl-d3)pyrrolidin-2-yl)methyl-d2)-1H-indole], which EC50 [1] is on record?
Answer: The EC50 was under 1000 nM.

Question: What about the IC50 [2] of the same compound?
Answer: Its IC50 is 500 to 5000 nM.

Question: What about the “Remaining Percentage (%) after 60 min, Human” value ([3]; human liver microsomes, with NADPH, 2 μM) of the same compound?
Answer: Its value is 31.93%.

Question: What about the half-life at 2 μM ([3]; human, microsomes) of the same compound?
Answer: Its half-life at 2 μM is 36.4 min.

Question: And the microsomal CLint at 2 μM ([3]; human, microsomes)?
Answer: Its microsomal CLint at 2 μM is 38.1 µL/min/mg.

Question: And the half-life at 2 μM ([4]; male, rat, microsomes)?
Answer: Its half-life at 2 μM is 29.8 min.

Question: And the microsomal CLint at 2 μM ([4]; male, rat, microsomes)?
Answer: Its microsomal CLint at 2 μM is 46.5 µL/min/mg.

Question: What about the “Remaining Percentage (%) after 60 min, Rat” value ([4]; rat liver microsomes, with NADPH, 2 μM) of the same compound?
Answer: Its value is 24.82%.

Question: And the half-life at 2 μM ([5]; male, mouse, microsomes)?
Answer: The half-life at 2 μM was 53.7 min.

Question: And the microsomal CLint at 2 μM ([5]; male, mouse, microsomes)?
Answer: The microsomal CLint at 2 μM was 25.8 µL/min/mg.

Question: What about the “Remaining Percentage (%) after 60 min, Mouse” value ([5]; mouse liver microsomes, with NADPH, 2 μM) of the same compound?
Answer: Its value is 46.10%.

Question: With `COc1cccc([C@H](O)C2CCN(CCc3ccc(F)cc3)CC2)c1OC` [Compound M100907, reference compound] as the compound, how does the “effect of I-2 on HTR after pretreatment with 5-HT2A antagonist M100907” value [6] read?
Answer: The value was “completely blocked”.

Question: With `CN(C)CCc1c[nH]c2cccc(OP(=O)(O)O)c12` [psilocybin, 4-phosphoryloxy-N,N-dimethyltrypatmine] as the compound, how does the abstinence rate ([7]; 12 months follow-up) read?
Answer: The abstinence rate was 67%.

Question: What about the abstinence rate ([7]; six months follow-up) of the same compound?
Answer: The abstinence rate was 80%.
